Earlier results, collected in patent publication US6596714B1, “Parasiticidal formulation for animals and a method of making this formulation” (Phoenix Scientific, Inc., priority 2000, dated 2003).

Test system: cestode infestations

CN1CCCN=C1/C=C/c1cccs1 [pyrantel pamoate]
Effectiveness in treating cestode infestations (about three times the label recommended dosage, about 19.8 milligrams per kilogram of animal): about 100% | Average efficacy against cestode infestations (label dosage of about 6.6 milligrams per kilogram of animal, paste formulations, average): about 85%
